Laboratory results as given in patent publication US12459899B2, “Isoquinolinone derivatives, method for preparing the same, and pharmaceutical composition for preventing or treating poly(ADP-ribose) polymerase-1-related diseases, comprising the same as active ingredient” (DIGMBIO. INC., priority 2019, dated 2025).
Where two headings read alike, the source gives them in different places.

Key:
[1] = tested on: rat model for dry macular degeneration (sodium iodate); test: Retinal layer protection of rats in sodium iodate model for dry macular degeneration; assay type: in vivo; conditions: 8-week-old rats, SI 50 mg/kg i.p., compound single intraperitoneal injection 15 mg/kg, H&E
Protocol: In order to evaluate the inhibitory effect (protective effect) of the compounds according to the present invention on reducing the thickness of the retinal layer of rats in dry macular degeneration-like cells, the following experiment was performed.
Specifically, 8-week-old rats were intraperitoneally injected with 50 mg/kg of sodium iodate (SI) to degenerate the retinal pigment epithelium and the photoreceptor cell layer to create a simulated animal model for dry macular degeneration. Retinal degeneration was observed 1 week after SI administration.
After a single intraperitoneal injection of Example 46 or Example 1 at a concentration of 15 mg/kg to the rat model for dry macular degeneration, the inhibitory effect (protective effect) on reducing the thickness of the retinal layer of the rats was evaluated.
In order to quantify the reduction of retinal thickness, the eyes extracted from the rats were fixed in a 4% glutaraldehyde solution for 3 hours and then embedded with paraffin. After preparing 5 μm-thick tissue fragments, the fragments were stained with a hematoxylin-eosin (H&E) solution and photographed with an optical microscope to measure the thickness of the retinal outer nuclear layer (ONL) of the retina. As a result, the thickness (μm) of the retinal ONL of the control group was calculated and expressed as 100% (n=3 times). […]

[2] = molecular target: PARP-1 (poly[ADP-ribose] polymerase 1) enzyme (Homo sapiens (Human), UniProt P09874); test: PARP-1 (poly[ADP-ribose] polymerase 1) enzyme inhibitory ability, Trevigen assay kit; assay type: biochemical; conditions: for IC50: PARP-1 enzyme activity
How it was run: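 After the 1 hour PARP reaction, wells were washed with PBS containing 0.1% triton X-100 and then PBS. Strep-HRP (50 μL) was bound for 1 hour, wells washed again, and 50 μL of TACS-sapphire substrate developed 15 minutes in the dark. Reactions were stopped with 50 μL of 5% phosphoric acid and absorbance read at 450 nm on a Victor3 reader.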

ARPE-19 cells = test: Retinal pigment epithelial cell line protection, H2O2-induced apoptosis, MTS activity assay; assay type: cell-based, human; conditions: 0.5 mM H2O2, 6 hours
Protocol: In order to evaluate the protective effect of the compounds according to the present invention on the retinal pigment epithelial cell line under the condition of inducing dry macular degeneration-like apoptosis, the following experiment was performed.
Specifically, ARPE-19 cells, which is a human retinal pigment epithelial cell line, were cultured in DMEM:F12 (Dulbecco's Modified Eagle's Medium: Ham's nutrient mixture F-12) containing 10% fetal bovine serum (FBS) and 1% penicillin/streptomycin. The cells were aliquoted in a well plate so that the number of cells per well was 1×10^4, and incubated in a 37° C. CO2 incubator for 12 hours. DMSO (0.1%) (control group) alone or various concentrations of the compounds of Examples 1 to 276 according to the present invention (experimental groups) were treated in a medium mixed with 0.5 mM H2O2 (control group), and then, the cells were further cultured in a 37° C. CO2 incubator for 6 hours to induce apoptosis.
The degree of apoptosis was measured by an MTS (3-(4,5-dimethylthiazol-2-yl)-5-(3-carboxymethoxyphenyl)-2-(4-sulfophenyl)-2H-tetrazolium) activity assay method manufactured by Promega, the cell MTS activity level in the normal medium condition was set to 100%, and the relative degree of cell protection was converted and determined based on the MTS activity level of the control group in the 0.5 mM H2O2 treatment condition.
The MTS activity assay evaluation method is a method of measuring the activity of NADH dehydrogenase in mitochondria in cells, and MTS is reduced by NADH dehydrogenase to form colored formazan. Through this method, live cells can be quantified, and cell proliferation and apoptosis can be quantified. After the above-mentioned damage stimulus was treated to the retinal pigment epithelial cell line, 15 μL of MTS activity assay kit manufactured by Promega was added to each well, and then reacted in a 37° C. CO2 incubator for 2 hours. The reacted wells were quantified by measuring the absorbance at 450 nm using a microplate reader Victor 3 manufactured by PerkinElmer, Inc., and the results are shown in Table 4 below.

[3] = 1 nM compound, read-out: PAR P-1 Inhibitory ability at 1 nM

Sequence of PARP-1 (poly[ADP-ribose] polymerase 1) enzyme (P09874 whole entry): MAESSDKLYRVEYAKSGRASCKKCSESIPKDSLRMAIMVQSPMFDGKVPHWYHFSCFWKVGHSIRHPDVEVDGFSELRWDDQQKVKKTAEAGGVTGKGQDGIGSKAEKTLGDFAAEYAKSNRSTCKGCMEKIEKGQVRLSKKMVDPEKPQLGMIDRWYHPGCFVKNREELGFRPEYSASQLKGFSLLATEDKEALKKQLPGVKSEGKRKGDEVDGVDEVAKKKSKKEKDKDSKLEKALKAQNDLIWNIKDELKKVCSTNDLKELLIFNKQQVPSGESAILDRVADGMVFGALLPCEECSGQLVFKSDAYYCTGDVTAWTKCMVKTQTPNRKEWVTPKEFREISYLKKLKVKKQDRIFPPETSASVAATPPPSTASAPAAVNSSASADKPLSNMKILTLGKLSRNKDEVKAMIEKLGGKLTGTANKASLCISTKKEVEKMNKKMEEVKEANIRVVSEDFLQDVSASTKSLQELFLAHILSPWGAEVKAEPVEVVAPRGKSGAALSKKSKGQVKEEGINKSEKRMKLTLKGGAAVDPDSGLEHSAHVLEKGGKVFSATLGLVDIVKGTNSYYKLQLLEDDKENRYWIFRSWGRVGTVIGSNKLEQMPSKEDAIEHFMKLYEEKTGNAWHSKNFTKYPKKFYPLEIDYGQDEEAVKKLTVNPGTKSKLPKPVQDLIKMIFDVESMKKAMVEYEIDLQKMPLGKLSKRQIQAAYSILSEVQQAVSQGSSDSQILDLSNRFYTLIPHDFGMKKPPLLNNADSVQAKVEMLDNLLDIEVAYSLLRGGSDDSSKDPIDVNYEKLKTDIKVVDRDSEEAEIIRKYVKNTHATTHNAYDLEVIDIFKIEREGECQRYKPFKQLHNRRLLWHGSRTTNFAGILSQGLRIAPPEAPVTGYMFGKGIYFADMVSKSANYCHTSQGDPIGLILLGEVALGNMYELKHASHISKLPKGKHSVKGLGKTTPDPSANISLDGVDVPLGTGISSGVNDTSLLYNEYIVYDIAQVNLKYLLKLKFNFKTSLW

Row | inhibition at 0.001 µM [2, 3] [%] | Compound | other results
1 | < 50 | Cc1cc(F)cc2c(=O)[nH]c(CCC(=O)N3CC=C(c4ccc(C#N)cn4)CC3)cc12 [Example 165, 1′-(3-(7-fluoro-5-methyl-1-oxo-1,2-dihydroisoquinolin-3-yl)propanoyl)-1′,2′,3′,6′-tetrahydro-[2,4′-bipyridine]-5-carbonitrile] | EC50 (ARPE-19 cells): 108 nM; EC50 (ARPE-19 cells; Homo sapiens, ARPE-19, 6 h): < 150 nM
2 | < 50 | N#Cc1ccc(C2=CCN(C(=O)CCc3cc4cccc(F)c4c(=O)[nH]3)CC2)nc1 [Example 88, 1′-(3-(8-fluoro-1-oxo-1,2-dihydroisoquinolin-3-yl)propanoyl)-1′,2′,3′,6′-tetrahydro-[2,4′-bipyridine]-5-carbonitrile] | EC50 (ARPE-19 cells; Homo sapiens, ARPE-19, 6 h): 629 nM
3 | < 50 | Cc1ccc(F)c2c(=O)[nH]c(CCC(=O)N3CCN(c4ccc(Cl)cc4)CC3)cc12 [Example 131, 3-(3-(4-(4-chlorophenyl)piperazin-1-yl)-3-oxopropyl)-8-fluoro-5-methylisoquinolin-1(2H)-one] | –
4 | < 50 | Cc1ccc(F)c2c(=O)[nH]c(CCC(=O)N3CC=C(c4ccc(C#N)cn4)CC3)cc12 [Example 140, 1′-(3-(8-fluoro-5-methyl-1-oxo-1,2-dihydroisoquinolin-3-yl)propanoyl)-1′,2′,3′,6′-tetrahydro-[2,4′-bipyridine]-5-carbonitrile] | –
5 | < 50 | N#Cc1ccc(N2CCN(C(=O)CCc3cc4ncccc4c(=O)[nH]3)CC2)nc1 [Example 242, 6-(4-(3-(5-oxo-5,6-dihydro-1,6-naphthyridin-7-yl)propanoyl)piperazin-1-yl)nicotinonitrile] | IC50 [2]: 3.18 nM
6 | < 50 | Cc1cc(F)cc2c(=O)[nH]c(CCC(=O)N3CCN(c4ccc(F)cc4C#N)CC3)cc12 [Example 159, 5-fluoro-2-(4-(3-(7-fluoro-5-methyl-1-oxo-1,2-dihydroisoquinolin-3-yl)propanoyl)piperazin-1-yl)benzonitrile] | –
7 | < 50 | Cc1ccc(F)c2c(=O)[nH]c(CCC(=O)N3CCN(c4ccc(C#N)cn4)CC3)cc12 [Example 123, 6-(4-(3-(8-fluoro-5-methyl-1-oxo-1,2-dihydroisoquinolin-3-yl)propanoyl)piperazin-1-yl)nicotinonitrile] | –
8 | < 50 | O=C(CCc1cc2cccc(F)c2c(=O)[nH]1)N1CC=C(c2cccc(F)c2)CC1 [Example 83, 8-fluoro-3-(3-(4-(3-fluorophenyl)-3,6-dihydropyridin-1(2H)-yl)-3-oxopropyl)isoquinolin-1(2H)-one] | –
9 | < 50 | N#Cc1cc(F)cc(C2=CCN(C(=O)CCc3cc4ccc(F)cc4c(=O)[nH]3)CC2)c1 [Example 114, 3-fluoro-5-(1-(3-(7-fluoro-1-oxo-1,2-dihydroisoquinolin-3-yl)propanoyl)-1,2,3,6-tetrahydropyridin-4-yl)benzonitrile] | –
10 | < 50 | N#Cc1ccc(N2CCN(C(=O)CCc3cc4ccc(F)cc4c(=O)[nH]3)CC2)nc1 [Example 99, 6-(4-(3-(7-fluoro-1-oxo-1,2-dihydroisoquinolin-3-yl)propanoyl)piperazin-1-yl)nicotinonitrile] | IC50 [2]: 1.05 nM

The remaining lines, values behind:

Row | Compound | inhibition at 0.001 µM [2, 3] [%] | other results
11 | N#Cc1ccc(N2CCN(CCCc3cc4cccc(F)c4c(=O)[nH]3)CC2)cc1 [Example 1, 4-(4-(3-(8-fluoro-1-oxo-1,2-dihydroisoquinolin-3-yl)propyl)piperazin-1-yl)benzonitrile] | – | protection of retinal outer nuclear layer (ONL) thickness [1]: the retina was protected; IC50 [2]: 2.3 nM
12 | N#Cc1ccc(C2=CCN(CCCc3cc4cccc(F)c4c(=O)[nH]3)CC2)nc1 [Example 46, 1′-(3-(8-fluoro-1-oxo-1,2-dihydroisoquinolin-3-yl)propyl)-1′,2′,3′,6′-tetrahydro-[2,4′-bipyridine]-5-carbonitrile] | 50 to 80 | protection of retinal outer nuclear layer (ONL) thickness [1]: the retina was protected; IC50 [2]: 1.66 nM
13 | O=c1[nH]c(CCCN2C3CCC2CN(c2ccc(Cl)cc2)C3)cc2ncccc12 [Example 228, 7-(3-(3-(4-chlorophenyl)-3,8-diazabicyclo[3.2.1]octan-8-yl)propyl)-1,6-naphthyridin-5(6H)-one] | 50 to 80 | EC50 (ARPE-19 cells): 144 nM; EC50 (ARPE-19 cells; Homo sapiens, ARPE-19, 6 h): < 150 nM
14 | N#Cc1ccc(N2CC3CCC(C2)N3C(=O)CCc2cc3ccc(F)cc3c(=O)[nH]2)nc1 [Example 220, 6-(8-(3-(7-fluoro-1-oxo-1,2-dihydroisoquinolin-3-yl)propanoyl)3,8-diazabicyclo[3.2.1]octan-3-yl)nicotinonitrile] | < 50 | –
15 | O=c1[nH]c(CCCN2CC=C(c3ccc(F)cn3)CC2)cc2cccc(F)c12 [Example 44, 8-fluoro-3-(3-(5-fluoro-3′,6′-dihydro-[2,4′-bipyridine]-1′(2′H)-yl)propyl)isoquinolin-1(2H)-one] | < 50 | –
16 | N#Cc1ccc(C2=CCN(CCCc3cc4ccc(F)cc4c(=O)[nH]3)CC2)cc1 [Example 47, 4-(1-(3-(7-fluoro-1-oxo-1,2-dihydroisoquinolin-3-yl)propyl)-1,2,3,6-tetrahydropyridin-4-yl)benzonitrile] | > 80 | inhibition at 0.001 µM ([2]; 1 nM (Table 2), read-out: inhibited PARP-1 enzyme activity): ≥ 80%
17 | N#Cc1ccc(OC2CC3CCC(C2)N3C(=O)CCc2cc3cccc(F)c3c(=O)[nH]2)cc1 (stereo not drawn) [Example 274, 4-((8-(3-(8-fluoro-1-oxo-1,2-dihydroisoquinolin-3-yl)propanoyl)-8-azabicyclo[3.2.1]octan-3-yl)oxy)benzonitrile] | < 50 | –
18 | N#Cc1ccc(F)c(N2CCN(C(=O)CCc3cc4cccc(F)c4c(=O)[nH]3)CC2)c1 [Example 79, 4-fluoro-3-(4-(3-(8-fluoro-1-oxo-1,2-dihydroisoquinolin-3-yl)propanoyl)piperazin-1-yl)benzonitrile] | < 50 | –
19 | Cc1ccc(F)c2c(=O)[nH]c(CCCN3CCN(c4ccc(C(F)(F)F)cc4)CC3)cc12 [Example 27, 8-fluoro-5-methyl-3-(3-(4-(4-(trifluoromethyl)phenyl)piperazin-1-yl)propyl)isoquinolin-1(2H)-one] | < 50 | –
20 | O=c1[nH]c(CCCN2CCN(c3ccc(F)cc3)CC2)cc2ccc(F)cc12 [Example 15, 7-fluoro-3-(3-(4-(4-fluorophenyl)piperazin-1-yl)propyl)isoquinolin-1(2H)-one] | – | IC50 [2]: 4.01 nM
21 | Cc1ccc(F)c2c(=O)[nH]c(CCCN3CCN(c4ccc(Cl)cc4)CC3)cc12 [Example 33, 3-(3-(4-(4-chlorophenyl)piperazin-1-yl)propyl)-8-fluoro-5-methylisoquinolin-1(2H)-one] | < 50 | –
22 | Cc1ccc(F)c2c(=O)[nH]c(CCCN3CC[C@@H](c4ccc(F)cc4)C3)cc12 [Example 32, (S)-8-fluoro-3-(3-(3-(4-fluorophenyl)pyrrolidin-1-yl)propyl)-5-methylisoquinolin-1(2H)-one] | < 50 | –
